Experimental data as given in patent US20170209348A1, “BIOPHOTONIC COMPOSITIONS COMPRISING HALOGEN AND USES THEREOF” (KLOX Technologies Inc., priority 2014, published 2017).

Experiment: Photobleaching of Eosin Y in carbomer gel under blue light
Type: physicochemical
Conditions: 109 μg/g Eosin Y, 12% urea peroxide, 200 ppm KI, blue light 5 cm, 10 minutes
Experimental: In this experiment, a first carbomer gel comprising 109 μg/g of Eosin Y and 12% urea peroxide (UP) was prepared. […] The two gels were then illuminated with blue light (5 cm distance) for 10 minutes. The fluorescence was measured and recorded by a spectrophotometer.

For [I-].[K+] [KI], the “time taken to photobleach the chromophore” value was “prolonged the time taken to photobleach the chromophore”.
